# Laboratory results from ChEMBL document CHEMBL2074369, “Interactions of HIV protease inhibitors with a human organic cation transporter in a mammalian expression system” (Drug Metab Dispos, 2000).
# Experiments:
# [1] = target: T1, Solute carrier family 22 member 1 (Rattus norvegicus, UniProt Q63089); assay: TP_TRANSPORTER: uptake in OCT1-expressing HeLa cells; type: functional, cell-based; conditions: human
# T1 sequence (Q63089 whole entry): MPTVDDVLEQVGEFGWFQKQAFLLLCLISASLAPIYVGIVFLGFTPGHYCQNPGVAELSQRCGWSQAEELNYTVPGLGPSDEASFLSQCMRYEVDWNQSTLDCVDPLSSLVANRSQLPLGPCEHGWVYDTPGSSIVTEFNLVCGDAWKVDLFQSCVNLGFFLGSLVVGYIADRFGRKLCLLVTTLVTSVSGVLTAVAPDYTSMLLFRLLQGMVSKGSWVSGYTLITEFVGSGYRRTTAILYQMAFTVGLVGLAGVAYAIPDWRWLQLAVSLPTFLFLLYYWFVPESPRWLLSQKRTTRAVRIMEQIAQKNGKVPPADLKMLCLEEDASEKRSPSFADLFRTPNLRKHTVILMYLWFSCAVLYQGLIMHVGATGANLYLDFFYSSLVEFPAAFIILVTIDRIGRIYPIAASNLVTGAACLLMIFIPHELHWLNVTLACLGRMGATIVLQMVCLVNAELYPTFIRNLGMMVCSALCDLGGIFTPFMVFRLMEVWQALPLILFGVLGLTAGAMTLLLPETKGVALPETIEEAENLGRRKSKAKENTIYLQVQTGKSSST
# [2] = target: Solute carrier family 22 member 1, Homo sapiens (UniProt O15245); assay: TP_TRANSPORTER: inhibition of TEA uptake (TEA: 10 uM) in OCT1-expressing HeLa cells
# Solute carrier family 22 member 1, Homo sapiens, sequence (O15245 whole entry, looked up): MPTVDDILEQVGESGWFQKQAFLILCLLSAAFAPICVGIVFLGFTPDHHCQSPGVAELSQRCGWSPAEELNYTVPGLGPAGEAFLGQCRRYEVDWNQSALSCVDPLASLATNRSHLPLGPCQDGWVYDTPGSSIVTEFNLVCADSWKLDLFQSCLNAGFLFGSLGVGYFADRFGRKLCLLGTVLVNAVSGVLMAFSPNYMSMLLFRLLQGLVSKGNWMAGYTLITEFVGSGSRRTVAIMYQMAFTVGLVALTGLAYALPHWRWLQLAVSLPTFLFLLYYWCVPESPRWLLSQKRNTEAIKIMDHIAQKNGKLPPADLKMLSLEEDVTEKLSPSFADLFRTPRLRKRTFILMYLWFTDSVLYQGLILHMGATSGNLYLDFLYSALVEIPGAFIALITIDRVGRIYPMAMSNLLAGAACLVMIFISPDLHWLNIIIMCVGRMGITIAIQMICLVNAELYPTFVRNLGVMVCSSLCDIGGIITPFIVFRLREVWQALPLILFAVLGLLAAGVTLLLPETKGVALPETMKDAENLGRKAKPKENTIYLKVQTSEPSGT
Activity [1],IC50 [2],SMILES
is not a substrate [-],8.26 µM,CC(C)(C)NC(=O)[C@@H]1C[C@@H]2CCCC[C@@H]2CN1C[C@@H](O)[C@H](Cc1ccccc1)NC(=O)[C@H](CC(N)=O)NC(=O)c1ccc2ccccc2n1 [SAQUINAVIR]
–,61.7 µM,CC(C)(C)NC(=O)[C@@H]1CN(Cc2cccnc2)CCN1C[C@@H](O)C[C@@H](Cc1ccccc1)C(=O)N[C@H]1c2ccccc2C[C@H]1O [INDINAVIR]
–,21.8 µM,Cc1c(O)cccc1C(=O)N[C@@H](CSc1ccccc1)[C@H](O)CN1C[C@H]2CCCC[C@H]2C[C@H]1C(=O)NC(C)(C)C [NELFINAVIR]
